Reference: patent US9394331B2, “2′-spiro-nucleosides and derivatives thereof useful for treating hepatitis C virus and dengue virus infections” (priority 2010, dated 2016)
Read-outs that look alike come from different tables or passages of the source.

What was measured:
HCV replicon = HCV replicon assay (Clone A cells and ET-lunet cells, HCV RNA by real time PCR); format: cell-based, hepatitis C virus; conditions: for EC90: read-out: EC90, anti-HCV 1b activity
Experimental: HCV replicon assay. HCV replicon assays using Clone A cells and ET-lunet cells were performed as described previously. L. J. Stuyver et al. Antimicrob. Agents Chemother. 2004, 48, 651-654. Briefly, Clone A cells and ET-lunet cells were seeded at a density of 1500 and 3000 cells per well in a 96-well plate, respectively. Test compounds serially diluted in culture medium without G418 were added to cells. Plates were incubated at 37° C. in a 5% CO2 atmosphere for 4 days. Inhibition of HCV RNA replication was determined by quantitative real time PCR. See, e.g., L. J. Stuyver et al. Antiviral Chem. Chemother. 2006, 17, 79-87.
To express the antiviral effectiveness of a compound, the threshold RT-PCR cycle of the test compound was subtracted from the average threshold RT-PCR cycle of the no-drug control (ΔCtHCV). A ΔCt of 3.3 equals a 1-log 10 reduction (equal to the 90% effective concentration [EC90]) in replicon RNA levels. The cytotoxicity of the test compound could also be expressed by calculating the ΔCtrRNA values. The ΔΔCt specificity parameter could then be introduced (ΔCtHCV-ΔCtrRNA), in which the levels of HCV RNA are normalized for the rRNA levels and calibrated against the no-drug control.

[1] = system: Dengue 2 strain New Guinea C; assay: Dengue CPE assay; format: cell-based, Dengue virus 2; conditions: Table 6, BHK-21 cells, 3 days, 50% cells surviving, read-out: EC50, activity against dengue virus
Experimental: Dengue CPE Assay. To measure cytopathic effect of Dengue virus 2, BHK-21 ([…], CCL-10 ATCC Manassas, Va.) cells were seeded at a density of 20,000 cells/well in a 96-well black/clear bottom plates (Becton Dickinson, Franklin Lakes, N.J.) one day prior to start of the assay and allowed to attach overnight in EMEM (ATCC Manassas, Va.) +10% FBS (Invitrogen, Carlsbad, Calif.) at 37° C. in a humidified 5% CO2 atmosphere. The next day, the medium was removed and the cells were infected with Dengue 2 strain New Guinea C (VR-1584, ATCC Manassas, Va.) at an MOI of 0.08 pfu/cell for two hours in 50 μL EMEM+2% FBS. For both the single point and dose response assays, compounds (2× concentration) were diluted in EMEM+2% FBS and 50 μL was added to infected cells without removing virus. Cells were incubated for 3 days at 37° C. in a humidified 5% CO2 atmosphere. The medium was aspirated and 50 μL of CellTiter-Glo (Promega, Madison, Wis.) was added to each well and read for 0.1 seconds on a Perkin Elmer Victor3 (Waltham, Mass.) plate reader. Percent survival was determined by subtracting the average value of infected control wells and normalizing to the non-infected wells. The effective concentration was calculated from the dose response data by forecasting 50% cells surviving with drug treatment.

[2] = Cytotoxicity reported with the dengue assay; format: cell-based; conditions: Table 6; cell line not stated
[3] = Cell cytotoxicity assay (MTS); format: cell-based; conditions: human
Experimental: Cell cytotoxicity assays. Each compound (serially diluted from 100 μM) was added to Huh7 (2×10^3 cells/well), HepG2 (2×10^3 cells/well), BxPC3 (2×10^3 cells/well), or CEM (5×10^3 cells/well) cells and allowed to incubate for 8 days at 37° C. A medium only control was used to determine the minimum absorbance value […]. At the end of the growth period, MTS dye from the CellTiter 96 Aqueous One Solution Cell Proliferation Assay kit (Promega) was added to each well and the plate was incubated for an additional 2 hours. The absorbance at 490 nm was read with a Victor3 plate reader (Perkin Elmer) using the medium only control wells as blanks. The 50% inhibition value (CC50) was determined by comparing the absorbance in wells containing cells and test compound to untreated cell control wells.

[4] = Hepatitis C virus, 96 h, Table 1, HCV replicon, 4 days, read-out: EC50, anti-HCV activity of selected nucleosides
[5] = Hepatitis C virus, Table 2, HCV 1b replicon, unit inferred, read-out: EC50, anti-HCV 1b activity
[6] = Table 3, HCV 1b replicon, read-out: EC50, anti-HCV 1b activity
[7] = Table 3, cell line not stated, read-out: CC50
[8] = Hepatitis C virus, 96 h, Table 4, cyclic phosphates, diastereomeric mixtures, read-out: EC50, anti-HCV 1b activity
[9] = Hepatitis C virus, 96 h, Table 4, cyclic phosphates, diastereomeric mixtures

## O=c1ccn([C@@H]2O[C@H](CO)[C@@H](O)[C@@]23CCCO3)c(=O)[nH]1 [compound 32, 1-((5 S,6R,8R,9R)-9-hydroxy-8-(hydroxymethyl)-1,7-dioxaspiro[4.4]nonan-6-yl)pyrimidine-2,4(1H,3H)-dione]
HCV replicon; [4]
  EC50: > 100 µM

## O=c1ccn([C@@H]2O[C@H](CO)[C@@H](O)[C@@]23CCO3)c(=O)[nH]1 [compound 36, 1-((4S,5R,7R,8R)-8-hydroxy-7-(hydroxymethyl)-1,6-dioxaspiro[3.4]octan-5-yl)pyrimidine-2,4(1H,3H)-dione]
HCV replicon; [4]
  EC50: > 100 µM

## O=c1ccn([C@@H]2O[C@H](CO)[C@@H](O)[C@]23CCCO3)c(=O)[nH]1 [compound 44, 1-((5R,6R,8R,9R)-9-hydroxy-8-(hydroxymethyl)-1,7-dioxaspiro[4.4]nonan-6-yl)pyrimidine-2,4(1H,3H)-dione]
HCV replicon; [4]
  EC50: > 100 µM

## O=c1ccn([C@@H]2O[C@H](CO)[C@@H](O)[C@]23CCO3)c(=O)[nH]1 [compound 48, 1-((4R,5R,7R,8R)-8-hydroxy-7-(hydroxymethyl)-1,6-dioxaspiro[3.4]octan-5-yl)pyrimidine-2,4(1H,3H)-dione]
HCV replicon; [4]
  EC50: > 100 µM

## Nc1ccn([C@@H]2O[C@H](CO)[C@@H](O)[C@]23CCCO3)c(=O)n1 [compound 49, 4-amino-1-((5R,6R,8R,9R)-9-hydroxy-8-(hydroxymethyl)-1,7-dioxaspiro[4.4]nonan-6-yl)pyrimidin-2(1H)-one]
HCV replicon; [4]
  EC50: > 100 µM

## Nc1ccn([C@@H]2O[C@H](CO)[C@@H](O)[C@@]23CCCO3)c(=O)n1 [compound 50, 4-amino-1-((5S,6R,8R,9R)-9-hydroxy-8-(hydroxymethyl)-1,7-dioxaspiro[4.4]nonan-6-yl)pyrimidin-2(1H)-one]
HCV replicon; [4]
  EC50: > 100 µM

## Nc1ccn([C@@H]2O[C@H](CO)[C@@H](O)[C@@]23CCO3)c(=O)n1 [compound 51, 4-amino-1-((4S,5R,7R,8R)-8-hydroxy-7-(hydroxymethyl)-1,6-dioxaspiro[3.4]octan-5-yl)pyrimidin-2(1H)-one]
HCV replicon; [4]
  EC50: > 100 µM

## Nc1ccn([C@@H]2O[C@H](CO)[C@@H](O)[C@]23CCO3)c(=O)n1 [compound 52, 4-amino-1-((4R,5R,7R,8R)-8-hydroxy-7-(hydroxymethyl)-1,6-dioxaspiro[3.4]octan-5-yl)pyrimidin-2(1H)-one]
HCV replicon; [4]
  EC50: > 54.5 µM

## COc1nc(N)nc2c1ncn2[C@@H]1O[C@H](CO)[C@@H](O)[C@@]12CCCO2 [compound 62, (5S,6R,8R,9R)-6-(2-amino-6-methoxy-9H-purin-9-yl)-8-(hydroxymethyl)-1,7-dioxaspiro[4.4]nonan-9-ol]
HCV replicon; [4]
  EC50: > 20 µM

## COc1nc(N)nc2c1ncn2[C@@H]1O[C@H](CO)[C@@H](O)[C@@]12CCO2 [compound 66, (4S,5R,7R,8R)-5-(2-amino-6-methoxy-9H-purin-9-yl)-7-(hydroxymethyl)-1,6-dioxaspiro[3.4]octan-8-ol]
HCV replicon; [4]
  EC50: > 20 µM

## COc1nc(N)nc2c1ncn2[C@@H]1O[C@H](CO)[C@@H](O)[C@]12CCCO2 [compound 72, (5R,6R,8R,9R)-6-(2-amino-6-methoxy-9H-purin-9-yl)-8-(hydroxymethyl)-1,7-dioxaspiro[4.4]nonan-9-ol]
HCV replicon; [4]
  EC50: > 20 µM

## COc1nc(N)nc2c1ncn2[C@@H]1O[C@H](CO)[C@@H](O)[C@]12CCO2 [compound 76, (4R,5R,7R,8R)-5-(2-amino-6-methoxy-9H-purin-9-yl)-7-(hydroxymethyl)-1,6-dioxaspiro[3.4]octan-8-ol]
HCV replicon; [4]
  EC50: > 100 µM

## Nc1nc2c(ncn2[C@@H]2O[C@H](CO)[C@@H](O)[C@]23CCO3)c(=O)[nH]1 [compound 77, 2-amino-9-((4R,5R,7R,8R)-8-hydroxy-7-(hydroxymethyl)-1,6-dioxaspiro[3.4]octan-5-yl)-1H-purin-6(9H)-one]
HCV replicon; [4]
  EC50: > 20 µM

## COC(=O)[C@H](C)NP(=O)(OC[C@H]1O[C@@H](n2cnc3c(OC)nc(N)nc32)[C@@]2(CCO2)[C@@H]1O)Oc1ccccc1 (stereo partly drawn) [compound 113, (2S)-methyl 2-(((((4R,5R,7R,8R)-5-(2-amino-6-methoxy-9H-purin-9-yl)-8-hydroxy-1,6-dioxaspiro[3.4]octan-7-yl)methoxy)(phenoxy)phosphoryl)amino)propanoate]
HCV replicon; [5]
  EC50: 1.55 µM
[1]; Dengue virus, BHK-21, 72 h
  EC50: 6.23 µM
[2]
  CC50: > 20 µM

## COC(=O)[C@H](C)NP(=O)(OC[C@H]1O[C@@H](n2ccc(=O)[nH]c2=O)[C@]2(CCCO2)[C@@H]1O)Oc1ccccc1 (stereo partly drawn) [compound 114, (2S)-methyl 2-(((((5S,6R,8R,9R)-6-(2,4-dioxo-3,4-dihydropyrimidin-1 (2H)-yl)-9-hydroxy-1,7-dioxaspiro[4.4]nonan-8-yl)methoxy)(phenoxy)phosphoryl)amino)propanoate]
HCV replicon; [5]
  EC50: 20.6 µM

## COC(=O)[C@H](C)NP(=O)(OC[C@H]1O[C@@H](n2ccc(=O)[nH]c2=O)[C@]2(CCO2)[C@@H]1O)Oc1ccccc1 (stereo partly drawn) [compound 115, (2S)-methyl 2-(((((4S,5R,7R,8R)-5-(2,4-dioxo-3,4-dihydropyrimidin-1 (2H)-yl)-8-hydroxy-1,6-dioxaspiro[3.4]octan-7-yl)methoxy)(phenoxy)phosphoryl)amino)propanoate]
HCV replicon; [5]
  EC50: 28.5 µM

## COC(=O)[C@H](C)NP(=O)(OC[C@H]1O[C@@H](n2ccc(=O)[nH]c2=O)[C@@]2(CCCO2)[C@@H]1O)Oc1ccccc1 (stereo partly drawn) [compound 116, (2S)-methyl 2-(((((5R,6R,8R,9R)-6-(2,4-dioxo-3,4-dihydropyrimidin-1 (2H)-yl)-9-hydroxy-1,7-dioxaspiro[4.4]nonan-8-yl)methoxy)(phenoxy)phosphoryl)amino)propanoate]
HCV replicon; [5]
  EC50: 28.3 µM

## COC(=O)[C@H](C)NP(=O)(OC[C@H]1O[C@@H](n2ccc(=O)[nH]c2=O)[C@@]2(CCO2)[C@@H]1O)Oc1ccccc1 (stereo partly drawn) [compound 117, (2S)-methyl 2-(((((4R,5R,7R,8R)-5-(2,4-dioxo-3,4-dihydropyrimidin-1 (2H)-yl)-8-hydroxy-1,6-dioxaspiro[3.4]octan-7-yl)methoxy)(phenoxy)phosphoryl)amino)propanoate]
HCV replicon; [5]
  EC50: 16.7 µM

## COc1nc(N)nc2c1ncn2C1OC(COP(=O)(N[C@@H](C)C(=O)OC(C)C)Oc2ccccc2)[C@@H](O)[C@]12CCO2 (stereo partly drawn) [compound 118]
HCV replicon; [6]
  EC50: 1.49 µM
HCV replicon; Table 3, HCV 1b replicon
  EC90: 3.44 µM
[1]
  EC50: 5.06 µM
[3]; [7]
  CC50 at 8 days: > 20 µM
[2]
  CC50: > 20 µM

## COc1nc(N)nc2c1ncn2C1OC(COP(=O)(N[C@@H](C)C(=O)OCC(C)(C)C)Oc2ccccc2)[C@@H](O)[C@]12CCO2 (stereo partly drawn) [compound 120]
HCV replicon; [6]
  EC50: 0.39 µM
HCV replicon; Table 3, HCV 1b replicon
  EC90: 0.676 µM
[1]; Dengue virus, BHK-21, 72 h
  EC50: 1.88 µM
[3]; [7]
  CC50 at 8 days: > 20 µM
[2]
  CC50: > 20 µM

## COc1nc(N)nc2c1ncn2C1OC2COP(=O)(OCC(C)(C)C)O[C@H]2[C@]12CCO2 (stereo partly drawn) [compound 132]
HCV replicon; [8]
  EC50: > 20 µM
HCV replicon; [9]
  EC90: > 20 µM
[3]
  CC50 at 8 days: > 20 µM

## COc1nc(N)nc2c1ncn2C1OC2COP(=O)(OC(C)C)O[C@H]2[C@]12CCO2 (stereo partly drawn) [compound 133]
HCV replicon; [8]
  EC50: > 20 µM
HCV replicon; [9]
  EC90: > 20 µM
[3]
  CC50 at 8 days: > 20 µM

## COc1nc(N)nc2c1ncn2C1OC2COP(=O)(OC3CCCC3)O[C@H]2[C@]12CCO2 (stereo partly drawn) [compound 134]
HCV replicon; [9]
  EC90: > 20 µM
HCV replicon; Hepatitis C virus, Table 4, cyclic phosphates, diastereomeric mixtures, read-out: EC50, anti-HCV 1b activity
  EC50: 14 µM
[3]
  CC50 at 8 days: > 20 µM
